Key:
SARS-CoV 3CLpro [1] = format: biochemical; details: activity class by pIC50 threshold 6
SARS-CoV-2 3CLpro = SARS-CoV-2 3CLpro (Severe acute respiratory syndrome coronavirus 2, UniProt P0DTD1); details: SARS-CoV pIC50 multiplied by similarity index (SI), training set compounds
SARS-CoV 3CLpro [2] = details: SARS-CoV 3CLpro inhibitors (training set), ref: per compound, cited from earlier work; for pIC50: from literature IC50; for IC50: literature values

SMILES	Inact.(<6)/Act.(>=6) (SARS-CoV 3CLpro [1])	SI*pIC50 (SARS-CoV-2 3CLpro)	pIC50 (SARS-CoV 3CLpro [2])	IC50 (SARS-CoV 3CLpro [2]) [µM]
Cc1coc2c1C(=O)C(=O)c1c-2ccc2c1CCCC2(C)C [CMP130]	Inact. (Inact.(<6))	5.948	5.796	1.6
O=C1C(=O)N(Cc2ccc(C(=O)N3CCCCC3)s2)c2ccc(I)cc21 [CMP100]	Inact. (Inact.(<6))	4.909	4.757	17.5
Nc1ncc(S(=O)(=O)c2ccc(Cl)cc2)c(N)n1 [CMP141]	Inact. (Inact.(<6))	5.374	5.222	6
C=C[C@@]1(C)CC[C@H]2C(=CC[C@@H]3[C@]2(C)CCC[C@@]3(C)C(=O)O)C1 [CMP133]	Inact. (Inact.(<6))	3.699	3.547	284
CCOC(=O)C(=CNc1ccc(S(=O)(=O)c2ccc(/N=C/C(C(=O)OCC)=C(\O)OCC)cc2)cc1)C(=O)OCC [CMP139]	Inact. (Inact.(<6))	4.6468	4.495	32
COc1cc(O)c2c(=O)cc(-c3ccc(OC)c(-c4c(O)cc(O)c5c(=O)cc(-c6ccc(O)cc6)oc45)c3)oc2c1 [CMP150]	Inact. (Inact.(<6))	4.6468	4.495	32
O=C(Oc1ccc(S(=O)(=O)c2ccc(OC(=O)C(Cl)=C(Cl)Cl)cc2)cc1)C(Cl)=C(Cl)Cl [CMP137]	Act. (Act.(>=6))	6.198	6.046	0.9
O=C(/C=C/c1ccccc1)Nc1ccccc1SC(=O)/C=C/c1ccccc1 [CMP108]	Inact. (Inact.(<6))	6.127	5.975	1.06
O=C(Oc1cncc(Cl)c1)c1cc2ccccc2s1 [CMP140]	Act. (Act.(>=6))	7.152	7	0.1
Cc1c(O)c(O)cc2c1CC=C1[C@@]2(C)CC[C@@]2(C)[C@@H]3C[C@](C)(C(=O)O)CC[C@]3(C)CC[C@]12C [CMP161]	Inact. (Inact.(<6))	4.816	4.664	21.7
NC(=O)c1ccc2c(c1)C(=O)C(=O)N2c1cccc2ccccc12 [CMP118]	Act. (Act.(>=6))	6.584	6.4318	0.37
CC1=C(C(=O)OCCc2ccccc2)C(c2ccccc2[N+](=O)[O-])C2=C(CCCC2=O)N1 (centres unmarked) [CMP102]	Inact. (Inact.(<6))	5.754	5.602	2.5
C=C(N[C@@H](CC(C)C)C(=O)N[C@@H](CC1CCNC1=O)C(=O)Cn1[nH]c(=O)c2c([N+](=O)[O-])cccc2c1=O)[C@@H](NC(=O)[C@H](C)NC(=O)O)[C@@H](C)OCc1ccccc1 (some centres unmarked) [CMP101]	Act. (Act.(>=6))	6.374	6.222	0.6
COc1ccc(C(c2c(O)c3cc(C)ccc3oc2=O)c2c(O)c3cc(C)ccc3oc2=O)cc1 [CMP105]	Inact. (Inact.(<6))	5.171	5.02	9.56
Cc1oc(C(C)(C)C)cc1-c1cc(NS(=O)(=O)c2cccs2)[nH]n1 [CMP136]	Inact. (Inact.(<6))	5.152	5	10
O=c1[nH]c2cc(Cl)cc(Cl)c2c(O)c1Sc1nnnn1-c1ccc(O)cc1 [CMP110]	Inact. (Inact.(<6))	5.127	4.975	10.6
CCOC(=O)/C=C/[C@H](C[C@@H]1CCNC1=O)NC(=O)[C@H](CC=C(C)C)CC(=O)[C@@H](NC(=O)c1cc(C)on1)C(C)C [CMP160]	Inact. (Inact.(<6))	4.307	4.1549	70
